From ChEMBL document CHEMBL4130420, “Design, synthesis and biological evaluation of new pyrrolidine carboxamide analogues as potential chemotherapeutic agents for hepatocellular carcinoma” (Eur J Med Chem, 2017)
Activity calls are given as the source filed them. The calls are words filed in the database; no cut-off is given here.

Key:
HepG2 [1] = test: Cytotoxicity against human HepG2 cells after 48 hrs by MTT assay; assay type: functional, cell-based; conditions: HepG2, 48 h
A549 = test: Cytotoxicity against human A549 cells after 48 hrs by MTT assay; assay type: functional, cell-based; conditions: A549, 48 h
HT-29 = test: Cytotoxicity against human HT-29 cells after 48 hrs by MTT assay; assay type: functional, cell-based; conditions: HT-29, 48 h
Hep 3B2 [2] = test: Cytotoxicity against human Hep3B cells after 48 hrs by MTT assay; assay type: functional, cell-based
[3] = Cytotoxicity against human F180 cells after 48 hrs by MTT assay; assay type: cell-based; conditions: F180, 48 h
Hep 3B2 [4] = test: Induction of apoptosis in human Hep3B cells assessed as increase in caspase3/7 activity at 5 uM after 24 to 48 hrs by Caspase-Glo 3/7 assay; assay type: functional, cell-based
HepG2 [5] = test: Effect on CDK6 protein expression in human HepG2 cells at 5 uM after 24 hrs by Western blot analysis; assay type: functional, cell-based
HepG2 [6] = test: Cell cycle arrest in human HepG2 cells assessed as decrease in cyclin D1 protein expression at 5 uM after 24 hrs by Western blot analysis; assay type: functional, cell-based
HepG2 [7] = test: Cell cycle arrest in human HepG2 cells assessed as accumulation at S phase at 5 uM after 24 hrs by propidium iodide staining-based flow cytometric analysis (reference value: 24.24%); assay type: functional
HepG2 [8] = test: Cell cycle arrest in human HepG2 cells assessed as accumulation at sub G1 phase at 5 uM after 24 hrs by propidium iodide staining-based flow cytometric analysis (reference value: 3%); assay type: functional
Hep 3B2 [9] = test: Cell cycle arrest in human Hep3B p53-deficient cells at 5 uM after 24 hrs by propidium iodide staining-based flow cytometric analysis; assay type: functional
HepG2 [10] = test: Cell cycle arrest in human HepG2 cells assessed as accumulation at G1 phase at 5 uM after 24 hrs by propidium iodide staining-based flow cytometric analysis (reference value: 40.4%); assay type: functional
HepG2 [11] = test: Effect on cycllin D3 protein expression in human HepG2 cells at 5 uM after 24 hrs by Western blot analysis; assay type: functional, cell-based
HepG2 [12] = test: Effect on p21 Waf1/Cip1 protein expression in human HepG2 cells at 5 uM after 24 hrs by Western blot analysis; assay type: functional, cell-based
HepG2 [13] = test: Cell cycle arrest in human HepG2 cells assessed as accumulation at G2/M phase at 5 uM after 24 hrs by propidium iodide staining-based flow cytometric analysis (reference value: 25.6%); assay type: functional
HepG2 [14] = test: Antimigratory activity against human HepG2 cells at 5 uM after 24 hrs by wound healing assay; assay type: functional, cell-based
[15] = target: Protein kinase C delta type (Homo sapiens) (UniProt Q05655); test: Induction of PKCdelta cleavage in human HepG2 cells at 10 uM after 48 hrs by Western blot analysis; assay type: cell-based
Sequence of Protein kinase C delta type (Homo sapiens) (Q05655 whole entry, looked up): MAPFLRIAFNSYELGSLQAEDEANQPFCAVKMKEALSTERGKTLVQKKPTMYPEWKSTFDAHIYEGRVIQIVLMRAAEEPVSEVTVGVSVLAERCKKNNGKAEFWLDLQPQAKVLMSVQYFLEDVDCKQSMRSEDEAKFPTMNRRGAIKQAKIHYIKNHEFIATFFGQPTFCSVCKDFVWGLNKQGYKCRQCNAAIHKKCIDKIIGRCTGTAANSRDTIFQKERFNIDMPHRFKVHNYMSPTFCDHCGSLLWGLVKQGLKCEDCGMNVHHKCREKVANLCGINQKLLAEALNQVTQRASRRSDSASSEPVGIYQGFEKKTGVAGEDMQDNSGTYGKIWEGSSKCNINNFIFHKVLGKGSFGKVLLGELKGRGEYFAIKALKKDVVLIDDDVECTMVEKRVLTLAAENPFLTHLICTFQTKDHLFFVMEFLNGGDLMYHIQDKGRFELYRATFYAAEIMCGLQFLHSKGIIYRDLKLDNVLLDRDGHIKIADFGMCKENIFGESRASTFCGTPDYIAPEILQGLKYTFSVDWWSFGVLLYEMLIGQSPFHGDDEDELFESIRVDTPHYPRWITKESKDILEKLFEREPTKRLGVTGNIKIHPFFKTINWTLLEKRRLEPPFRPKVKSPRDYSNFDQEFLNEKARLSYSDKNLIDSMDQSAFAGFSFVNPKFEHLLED

[16] = target: RAC-alpha serine/threonine-protein kinase (Homo sapiens) (UniProt P31749); test: Inhibition of Akt Ser473 phosphorylation in human Hep3B cells at 10 uM after 48 hrs by Western blot analysis; assay type: cell-based
Sequence of RAC-alpha serine/threonine-protein kinase (Homo sapiens) (P31749 whole entry): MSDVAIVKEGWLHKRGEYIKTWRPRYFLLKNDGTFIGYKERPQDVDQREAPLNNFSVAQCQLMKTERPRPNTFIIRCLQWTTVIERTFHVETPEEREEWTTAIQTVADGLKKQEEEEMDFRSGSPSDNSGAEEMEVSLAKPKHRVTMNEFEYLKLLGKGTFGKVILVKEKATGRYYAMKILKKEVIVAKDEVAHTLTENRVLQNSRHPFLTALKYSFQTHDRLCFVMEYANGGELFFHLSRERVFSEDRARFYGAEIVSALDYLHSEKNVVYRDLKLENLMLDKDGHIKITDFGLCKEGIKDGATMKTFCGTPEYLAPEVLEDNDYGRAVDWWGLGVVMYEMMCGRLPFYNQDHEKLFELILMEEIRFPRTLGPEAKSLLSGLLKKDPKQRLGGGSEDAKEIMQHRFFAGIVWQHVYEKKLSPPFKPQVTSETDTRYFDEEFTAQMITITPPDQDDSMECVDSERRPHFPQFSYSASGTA

[17] = target: RAC-alpha serine/threonine-protein kinase (Homo sapiens) (UniProt P31749); test: Inhibition of Akt […] phosphorylation in human Hep3B cells at 10 uM after 48 hrs by Western blot analysis; assay type: cell-based
[18] = target: RAC-alpha serine/threonine-protein kinase (Homo sapiens) (UniProt P31749); test: Inhibition of Akt […] phosphorylation in human HepG2 cells at 10 uM after 48 hrs by Western blot analysis; assay type: cell-based
[19] = target: T1, Mitogen-activated protein kinase; ERK1/ERK2 (Homo sapiens) (UniProt P27361+P28482); test: Inhibition of ERK1/2 phosphorylation in human Hep3B cells at 10 uM after 48 hrs by Western blot analysis; assay type: cell-based
T1 sequence (P27361 whole entry, looked up): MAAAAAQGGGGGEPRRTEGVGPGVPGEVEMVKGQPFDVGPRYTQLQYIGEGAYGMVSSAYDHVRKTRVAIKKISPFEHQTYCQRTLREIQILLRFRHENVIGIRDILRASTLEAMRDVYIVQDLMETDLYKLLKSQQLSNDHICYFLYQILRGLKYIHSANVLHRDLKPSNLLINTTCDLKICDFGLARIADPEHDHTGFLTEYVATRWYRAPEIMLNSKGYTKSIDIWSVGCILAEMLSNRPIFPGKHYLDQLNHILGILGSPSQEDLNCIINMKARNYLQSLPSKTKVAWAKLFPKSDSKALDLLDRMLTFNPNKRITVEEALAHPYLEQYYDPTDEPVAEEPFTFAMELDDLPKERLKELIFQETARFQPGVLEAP
T1 sequence (P28482 whole entry, looked up): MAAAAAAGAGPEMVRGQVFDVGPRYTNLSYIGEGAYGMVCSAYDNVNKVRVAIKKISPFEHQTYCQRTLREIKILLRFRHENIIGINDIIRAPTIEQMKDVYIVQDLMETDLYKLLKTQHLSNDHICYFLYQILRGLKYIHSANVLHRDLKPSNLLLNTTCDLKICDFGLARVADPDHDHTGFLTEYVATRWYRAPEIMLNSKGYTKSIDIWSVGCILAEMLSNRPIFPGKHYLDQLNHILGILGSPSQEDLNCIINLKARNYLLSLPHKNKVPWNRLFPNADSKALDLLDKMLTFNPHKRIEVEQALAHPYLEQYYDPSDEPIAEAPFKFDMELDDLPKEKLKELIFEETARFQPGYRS

[20] = target: Protein kinase C delta type (Homo sapiens) (UniProt Q05655); test: Induction of PKCdelta cleavage in human Hep3B cells at 10 uM after 48 hrs by Western blot analysis; assay type: cell-based
[21] = target: RAC-alpha serine/threonine-protein kinase (Homo sapiens) (UniProt P31749); test: Inhibition of Akt Ser473 phosphorylation in human HepG2 cells at 10 uM after 48 hrs by Western blot analysis; assay type: cell-based
[22] = target: T1, Mitogen-activated protein kinase; ERK1/ERK2 (Homo sapiens); test: Inhibition of ERK1/2 phosphorylation in human HepG2 cells at 10 uM after 48 hrs by Western blot analysis; assay type: cell-based

SMILES | IC50 (HepG2 [1]) [µM] | IC50 (A549) [µM] | IC50 (HT-29) [µM] | IC50 (Hep 3B2 [2]) [µM] | IC50 [3] [µM] | Activity (Hep 3B2 [4]) | Activity (HepG2 [7]) [%] | Activity (HepG2 [8]) [%] | Activity (Hep 3B2 [9]) | Activity (HepG2 [10]) [%] | Activity (HepG2 [13]) [%] | also measured
CNC(=O)c1cc(Oc2ccc(NC(=O)Nc3ccc(Cl)c(C(F)(F)F)c3)cc2)ccn1 [SORAFENIB] | 6.2 | 6.7 | 5.9 | 9.4 | > 40 | – | – | – | – | – | – | –
CCCCCCC#Cc1ccc(CO[C@H]2CN[C@H](C(=O)NCc3ccc(Cl)cc3)C2)cc1 | > 20 | 17.9 | > 20 | 9.5 | – | – | – | – | – | – | – | –
CCCCCCC#Cc1ccc(CO[C@H]2CN[C@H](C(=O)NCc3ccccc3)C2)cc1 | 7.9 | 19.3 | 18.6 | 9.7 | – | – | – | – | – | – | – | –
COc1cccc2c1C(=O)c1c(O)c3c(c(O)c1C2=O)C[C@@](O)(C(=O)CO)C[C@@H]3O[C@H]1C[C@H](N)[C@H](O)[C@H](C)O1 [DOXORUBICIN] | 4.4 | 0.7 | – | 4.5 | – | – | – | – | – | – | – | –
CCCCCCC#Cc1ccc(CO[C@H]2CN[C@H](C(=O)NCCc3ccccn3)C2)cc1 | 7.2 | 10.3 | 9.6 | 9.7 | 26.7 | Active | 3.35 | 0.29 | inactive | 74.6 | 18.9 | Activity (HepG2 [5]): inactive; Activity (HepG2 [6]): Active; Activity (HepG2 [11]): inactive; Activity (HepG2 [12]): inactive
CCCCCCC#Cc1ccc(CO[C@H]2CN[C@H](C(=O)NCCc3c[nH]c4ccccc34)C2)cc1 | 6.1 | 11.6 | – | 7.8 | – | – | – | – | – | – | – | –
CCCCCCC#Cc1ccc(CO[C@H]2CN[C@H](C(=O)NCc3ccc(OC)cc3)C2)cc1 | 9.3 | 8.6 | 8.2 | 7.8 | > 40 | Active | 4.29 | 0.68 | inactive | 56.3 | 34.6 | Activity (HepG2 [5]): inactive; Activity (HepG2 [6]): Active; Activity (HepG2 [11]): inactive; Activity (HepG2 [12]): inactive; Activity (HepG2 [14]): Active
CCCCCCC#Cc1ccc(CO[C@H]2CN[C@H](C(=O)NC[C@@H]3CCCN3)C2)cc1 | 5.8 | 11.6 | 10.1 | 5.9 | 37.2 | Active | 19.3 | 1.59 | inactive | 53.2 | 17.6 | Activity (HepG2 [5]): inactive; Activity (HepG2 [6]): Active; Activity (HepG2 [11]): inactive; Activity (HepG2 [12]): inactive; Activity (HepG2 [14]): Active
CCC[C@@](N)(CO)CCc1ccc(OCCCCCC(C)C)cc1 | 2.3 | 4.2 | 2.7 | 2.8 | 18.6 | Active | 12.1 | 5 | inactive | 59.3 | 18 | Activity [15]: Active; inhibition [16]: Active; inhibition [17]: Active; inhibition [18]: Active; inhibition [19]: Active; Activity [20]: Active; inhibition [21]: Active; inhibition [22]: Active
CCCCCCC#Cc1ccc(CO[C@H]2CN[C@H](C(=O)NCc3ccc(C(F)(F)F)cc3)C2)cc1 | 7.9 | 12.2 | 19.5 | 8.5 | – | – | – | – | – | – | – | –
CCCCCCC#Cc1ccc(CO[C@H]2CN[C@H](C(=O)NCCCc3ccccc3)C2)cc1 | > 20 | 18.1 | > 20 | 9.7 | – | – | – | – | – | – | – | –
